Reference: patent publication US8952024B2, “Herbicidal pyrimidone derivatives” (E I du Pont de Nemours and Company, priority 2009, dated 2015)

Tests used:
Type in all cases: in vivo
[1] = tested on: barnyardgrass (Echinochloa crus-galli); assay: Test A pre-/postemergence plant response
Description: (§1) Seeds of barnyardgrass (Echinochloa crus-galli), large crabgrass (Digitaria sanguinalis), giant foxtail (Setaria faberii), morningglory (Ipomoea spp.), pigweed (Amaranthus retroflexus), velvetleaf (Abutilon theophrasti), wheat (Triticum aestivum) and corn (Zea mays) were planted into a blend of loam soil and sand and treated preemergence with a directed soil spray using test chemicals formulated in a non-phytotoxic solvent mixture which included a surfactant. At the same time these species were also treated with postemergence applications of test compounds formulated in the same manner.
(§2) Plants ranged in height from two to ten cm and were in the one- to two-leaf stage for the postemergence treatment. Treated plants and untreated controls were maintained in a greenhouse for approximately ten days, after which time all treated plants were compared to untreated controls and visually evaluated for injury. Plant response ratings, summarized in Table A, are based on a 0 to 100 scale where 0 is no effect and 100 is complete control. A dash (-) response means no test result.

[2] = tested on: giant foxtail (Setaria faberii); assay: Test A pre-/postemergence plant response
Description: as §1, §2

[3] = tested on: velvetleaf (Abutilon theophrasti); assay: Test A pre-/postemergence plant response
Description: as §1, §2

corn (Zea mays) = assay: Test A pre-/postemergence plant response
Description: as §1, §2

[4] = tested on: wheat (Triticum aestivum); assay: Test A pre-/postemergence plant response
Description: as §1, §2

[5] = tested on: morningglory (Ipomoea spp.); assay: Test A pre-/postemergence plant response
Description: as §1, §2

[6] = tested on: large crabgrass (Digitaria sanguinalis); assay: Test A pre-/postemergence plant response
Description: as §1, §2

[7] = tested on: pigweed (Amaranthus retroflexus); assay: Test A pre-/postemergence plant response
Description: as §1, §2

[8] = tested on: barnyardgrass (Echinochloa crus-galli); assay: Test B flooded paddy test; settings: for Plant response rating, Flood, Barnyardgrass: 250 g ai/ha, flooded paddy test, visual rating on 0 to 100 scale (0 no effect, 100 complete control) after 13 to 15 days; for Plant response rating, Barnyardgrass: Flood (flooded paddy test), 13 to 15 days
Description: (§3) Plant species in the flooded paddy test consisted of rice (Oryza sativa), umbrella sedge (Cyperus difformis), ducksalad (Heteranthera limosa) and barnyardgrass (Echinochloa crus-galli) grown to the 2-leaf stage for testing. At the time of treatment, test pots were flooded with water to 3 cm above the soil surface, treated by application of test compounds directly to the paddy water, and then maintained at that water depth for the duration of the test.
(§4) Treated plants and controls were maintained in a greenhouse for 13 to 15 days, after which time all treated plants were visually evaluated and compared to controls. Plant response ratings, summarized in Table B, are based on a scale of 0 to 100 where 0 is no effect and 100 is complete control. A dash (-) response means no test result.

[9] = tested on: ducksalad (Heteranthera limosa); assay: Test B flooded paddy test; settings: for Plant response rating, Flood, Ducksalad: 250 g ai/ha, flooded paddy test, visual rating on 0 to 100 scale (0 no effect, 100 complete control) after 13 to 15 days; for Plant response rating, Ducksalad: Flood (flooded paddy test), 13 to 15 days
Description: as §3, §4

rice (Oryza sativa) = assay: Test B flooded paddy test; settings: for Plant response rating, Rice: Flood (flooded paddy test), 13 to 15 days
Description: as §3, §4

[10] = tested on: umbrella sedge (Cyperus difformis); assay: Test B flooded paddy test; settings: for Plant response rating, Flood, Sedge, Umbrella: 250 g ai/ha, flooded paddy test, visual rating on 0 to 100 scale (0 no effect, 100 complete control) after 13 to 15 days; for Plant response rating, Sedge, Umbrella: Flood (flooded paddy test), 13 to 15 days
Description: as §3, §4

[11] = Postemergence, 125 g ai/ha, visual injury, 0 to 100 scale (0 no effect, 100 complete control), approx. ten days
[12] = Postemergence, 500 g ai/ha, 0 to 100 scale, 0 = no effect, 100 = complete control, approx. ten days
[13] = Preemergence, 125 g ai/ha, 0 to 100 scale, 0 = no effect, 100 = complete control
[14] = Preemergence, 500 g ai/ha, visual injury, 0 to 100 scale (0 no effect, 100 complete control), approx. ten days
[15] = 31 g ai/ha, scale of 0 to 100 where 0 is no effect and 100 is complete control
[16] = 62 g ai/ha, scale 0 to 100, 0 is no effect, 100 is complete control
[17] = 125 g ai/ha, scale 0 to 100, 0 is no effect, 100 is complete control
[18] = 62 g ai/ha, scale of 0 to 100 where 0 is no effect and 100 is complete control

For `O=C1CCCC(O)=C1C(=O)c1cnc(-c2ccccc2Cl)n(-c2ccccc2)c1=O` [Compound 35], the “Barnyardgrass plant response rating” value [1, 11] was 10, the “Plant response rating, Barnyardgrass” value [1, 12] was 60 and the “Plant response rating, Barnyardgrass” value [1, 13] was 0. For the same compound, the “Plant response rating, Barnyardgrass” value [1, 14] was 0, the “Foxtail, Giant plant response rating” value [2, 11] was 40 and the “Plant response rating, Foxtail, Giant” value [2, 12] was 80. The “Plant response rating, Foxtail, Giant” value [2, 13] was 0, the “Plant response rating, Foxtail, Giant” value [2, 14] was 10 and the “Velvetleaf plant response rating” value [3, 11] was 100. For the same compound, the “Plant response rating, Velvetleaf” value [3, 12] was 100, the “Plant response rating, Velvetleaf” value [3, 13] was 0 and the “Plant response rating, Velvetleaf” value [3, 14] was 70. The “Corn plant response rating” value (corn (Zea mays); [11]) was 0, the “Plant response rating, Corn” value (corn (Zea mays); [12]) was 10 and the “Plant response rating, Corn” value (corn (Zea mays); [13]) was 0. The “Plant response rating, Corn” value (corn (Zea mays); [14]) was 0, the “Wheat plant response rating” value [4, 11] was 0 and the “Plant response rating, Wheat” value [4, 12] was 0. The “Plant response rating, Wheat” value [4, 13] was 0, the “Plant response rating, Wheat” value [4, 14] was 0 and the “Plant response rating, Morningglory” value [5, 12] was 80. The “Plant response rating, Morningglory” value [5, 14] was 20, the “Crabgrass, Large plant response rating” value [6, 11] was 50 and the “Plant response rating, Crabgrass, Large” value [6, 12] was 80. For the same compound, the “Plant response rating, Crabgrass, Large” value [6, 13] was 10, the “Plant response rating, Crabgrass, Large” value [6, 14] was 60 and the “Pigweed plant response rating” value [7, 11] was 80. For the same compound, the “Plant response rating, Pigweed” value [7, 12] was 100, the “Plant response rating, Pigweed” value [7, 13] was 10 and the “Plant response rating, Pigweed” value [7, 14] was 100. The “Plant response rating, Flood, Barnyardgrass” value [8] was 0, the “Plant response rating, Barnyardgrass” value [8, 15] was 0 and the “Plant response rating, Barnyardgrass” value [8, 16] was 0. For the same compound, the “Plant response rating, Barnyardgrass” value [8, 17] was 0, the “Plant response rating, Flood, Ducksalad” value [9] was 0 and the “Plant response rating, Ducksalad” value [9, 15] was 0. For the same compound, the “Plant response rating, Ducksalad” value [9, 16] was 0, the “Plant response rating, Ducksalad” value [9, 17] was 0 and the “Plant response rating, Rice” value (rice (Oryza sativa); [15]) was 0. The “Plant response rating, Rice” value (rice (Oryza sativa); [16]) was 0, the “Plant response rating, Rice” value (rice (Oryza sativa); [17]) was 0 and the “Plant response rating, Flood, Sedge, Umbrella” value [10] was 0. The “Plant response rating, Sedge, Umbrella” value [10, 15] was 0, the “Plant response rating, Sedge, Umbrella” value [10, 16] was 0 and the “Plant response rating, Sedge, Umbrella” value [10, 17] was 0.

`CCCCCCc1ncc(C(=O)C2=C(O)CCCC2=O)c(=O)n1-c1ccccc1` [Compound 54] was tested, and the “Barnyardgrass plant response rating” value [1, 11] was 10, the “Plant response rating, Barnyardgrass” value [1, 12] was 60 and the “Plant response rating, Barnyardgrass” value [1, 13] was 0. For the same compound, the “Plant response rating, Barnyardgrass” value [1, 14] was 10, the “Foxtail, Giant plant response rating” value [2, 11] was 10 and the “Plant response rating, Foxtail, Giant” value [2, 12] was 60. For the same compound, the “Plant response rating, Foxtail, Giant” value [2, 13] was 0, the “Plant response rating, Foxtail, Giant” value [2, 14] was 0 and the “Velvetleaf plant response rating” value [3, 11] was 100. The “Plant response rating, Velvetleaf” value [3, 12] was 100, the “Plant response rating, Velvetleaf” value [3, 13] was 60 and the “Plant response rating, Velvetleaf” value [3, 14] was 70. The “Corn plant response rating” value (corn (Zea mays); [11]) was 0, the “Plant response rating, Corn” value (corn (Zea mays); [12]) was 10 and the “Plant response rating, Corn” value (corn (Zea mays); [13]) was 0. The “Plant response rating, Corn” value (corn (Zea mays); [14]) was 0, the “Wheat plant response rating” value [4, 11] was 0 and the “Plant response rating, Wheat” value [4, 12] was 0. For the same compound, the “Plant response rating, Wheat” value [4, 13] was 0, the “Plant response rating, Wheat” value [4, 14] was 0 and the “Morningglory plant response rating” value [5, 11] was 40. The “Plant response rating, Morningglory” value [5, 12] was 100, the “Plant response rating, Morningglory” value [5, 13] was 0 and the “Plant response rating, Morningglory” value [5, 14] was 0. For the same compound, the “Crabgrass, Large plant response rating” value [6, 11] was 40, the “Plant response rating, Crabgrass, Large” value [6, 12] was 70 and the “Plant response rating, Crabgrass, Large” value [6, 13] was 0. For the same compound, the “Plant response rating, Crabgrass, Large” value [6, 14] was 30, the “Pigweed plant response rating” value [7, 11] was 100 and the “Plant response rating, Pigweed” value [7, 12] was 100. The “Plant response rating, Pigweed” value [7, 13] was 80, the “Plant response rating, Pigweed” value [7, 14] was 90 and the “Plant response rating, Flood, Barnyardgrass” value [8] was 0. The “Plant response rating, Barnyardgrass” value [8, 15] was 0, the “Plant response rating, Barnyardgrass” value [8, 18] was 0 and the “Plant response rating, Barnyardgrass” value [8, 17] was 0. For the same compound, the “Plant response rating, Flood, Ducksalad” value [9] was 40, the “Plant response rating, Ducksalad” value [9, 15] was 0 and the “Plant response rating, Ducksalad” value [9, 18] was 0. The “Plant response rating, Ducksalad” value [9, 17] was 30, the “Plant response rating, Flood, Rice” value (rice (Oryza sativa); 250 g ai/ha, flooded paddy test, visual rating on 0 to 100 scale (0 no effect, 100 complete control) after 13 to 15 days) was 0 and the “Plant response rating, Rice” value (rice (Oryza sativa); [15]) was 0. The “Plant response rating, Rice” value (rice (Oryza sativa); [18]) was 0, the “Plant response rating, Rice” value (rice (Oryza sativa); [17]) was 0 and the “Plant response rating, Flood, Sedge, Umbrella” value [10] was 40. The “Plant response rating, Sedge, Umbrella” value [10, 15] was 0, the “Plant response rating, Sedge, Umbrella” value [10, 18] was 0 and the “Plant response rating, Sedge, Umbrella” value [10, 17] was 0.
